Assay results published in US20240368154A1 (GENOSCO Inc., priority 2023, published 2024).

How the values were obtained:
[1] = target: T1, Recombinant ROCK2 (amino acids 5-554) (Homo sapiens, UniProt O75116); experiment: ROCK inhibition assay, LANCE Ultra TR-FRET kinase assay; format: biochemical; settings: at Km of ATP (table title); method: 1 mM ATP, 50 nM ULight-CREBtide substrate, 1 hour, room temperature
T1 construct: ROCK2 (amino acids 5-554)
Experimental: (§1) Kinase IC50 was determined through an in vitro assay based on LANCE Ultra TR-FRET (Time-Resolved Fluorescence Resonance Energy Transfer) homogeneous technologies method (Perkin Elmer). Recombinant ROCK1 (amino acids 1-477) and ROCK2 (amino acids 5-554) proteins were purchased from Carna Biosciences and SignalChem. Compound activities were measured by Envision and IC50s were calculated. The assays were performed in white LUMITRAC™ 200 96 well half-area microplates from Greiner Bio-One. The kinase reaction buffer consisted of 50 mM HEPES pH 7.5, 1 mM EGTA, 10 mM MgCl2, 2 mM DTT and 0.01% Tween-20. Kinases were incubated with 50 nM (ULight-CREBtide) substrate in the presence of 1 mM (ROCK1) or 1 mM (ROCK2) of ATP. The kinase reaction was carried out for 1 hour before addition of a stopping buffer to a final of 10 mM EDTA and 0.6 nM of LANCE Ultra Europium anti-phospho-CREB (Ser133) antibody (PerkinElmer TRF0200) in LANCE detection buffer. All assay incubations were performed at room temperature, and the microplates were sealed with polyester film during that time. The reaction was incubated for 1 hour, and the signal was read in Envision in TR-FRET mode (excitation at 320 nm and emission at 615/665 nm).
(§2) As used herein, a way to describe potency of inhibitory activity (nM) is a value of inhibitory activity at 50% (IC50).

[2] = target: T2, Recombinant ROCK1 (amino acids 1-477) (Homo sapiens, UniProt Q13464); experiment: as above; format: biochemical; settings: at Km of ATP (table title); method: 1 mM ATP, 50 nM ULight-CREBtide substrate, 1 hour, room temperature
T2 construct: Recombinant ROCK1 (amino acids 1-477)
Experimental: as §1, §2

T1 sequence (O75116 5-554): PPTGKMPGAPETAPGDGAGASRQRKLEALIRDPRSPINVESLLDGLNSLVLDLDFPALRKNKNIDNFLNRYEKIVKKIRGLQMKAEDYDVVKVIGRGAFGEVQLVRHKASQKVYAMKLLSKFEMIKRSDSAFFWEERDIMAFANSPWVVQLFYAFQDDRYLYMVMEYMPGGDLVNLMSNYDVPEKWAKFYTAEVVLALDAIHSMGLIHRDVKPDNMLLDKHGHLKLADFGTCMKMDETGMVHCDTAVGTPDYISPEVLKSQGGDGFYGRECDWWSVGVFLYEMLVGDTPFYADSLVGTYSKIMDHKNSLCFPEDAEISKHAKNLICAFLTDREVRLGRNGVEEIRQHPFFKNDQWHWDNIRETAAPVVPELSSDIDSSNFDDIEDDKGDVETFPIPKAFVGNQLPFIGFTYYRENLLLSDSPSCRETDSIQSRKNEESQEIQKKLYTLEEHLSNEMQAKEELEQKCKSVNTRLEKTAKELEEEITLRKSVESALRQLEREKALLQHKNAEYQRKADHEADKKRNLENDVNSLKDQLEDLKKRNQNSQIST
T2 sequence (Q13464 1-477): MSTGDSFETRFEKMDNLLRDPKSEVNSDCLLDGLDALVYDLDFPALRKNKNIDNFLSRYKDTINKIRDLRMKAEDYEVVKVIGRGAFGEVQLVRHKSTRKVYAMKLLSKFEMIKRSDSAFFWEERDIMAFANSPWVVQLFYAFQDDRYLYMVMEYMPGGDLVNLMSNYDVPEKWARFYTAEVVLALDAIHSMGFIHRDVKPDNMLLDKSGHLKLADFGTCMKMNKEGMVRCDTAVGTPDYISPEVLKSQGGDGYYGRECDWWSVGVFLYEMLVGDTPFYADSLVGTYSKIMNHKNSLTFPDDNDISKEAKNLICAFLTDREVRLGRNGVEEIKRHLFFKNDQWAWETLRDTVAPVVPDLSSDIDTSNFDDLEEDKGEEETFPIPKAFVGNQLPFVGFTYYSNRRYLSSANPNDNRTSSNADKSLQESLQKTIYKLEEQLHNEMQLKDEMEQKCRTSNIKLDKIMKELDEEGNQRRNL

COc1n[nH]cc1-c1ccc2c(C(=O)C3COc4ccc(Cl)cc4C3)cn(CCO)c2c1 (racemic) [Compound 2-17]
IC50 [1]: 11 to 50 nM
IC50 [2]: 11 to 50 nM

COc1n[nH]cc1-c1ccc2c(C(=O)C3COc4ccc(F)cc4C3)cn(CCO)c2c1 (racemic) [Compound 2-20]
IC50 [1]: 11 to 50 nM
IC50 [2]: 11 to 50 nM

COc1n[nH]cc1-c1ccc2c(C(=O)[C@@H]3COc4ccc(Cl)cc4C3)cn(CCO)c2c1 (single isomer, unassigned) [Compound 2-18]
IC50 [1]: < 10 nM
IC50 [2]: 11 to 50 nM

COc1n[nH]cc1-c1ccc2c(C(=O)[C@H]3COc4ccc(Cl)cc4C3)cn(CCO)c2c1 (single isomer, unassigned) [Compound 2-19]
IC50 [1]: 51 to 500 nM
IC50 [2]: > 501 nM

COc1n[nH]cc1-c1ccc2c(C(=O)[C@@H]3COc4ccc(F)cc4C3)cn(CCO)c2c1 (single isomer, unassigned) [Compound 2-21]
IC50 [1]: < 10 nM
IC50 [2]: 11 to 50 nM

COc1n[nH]cc1-c1ccc2c(C(=O)[C@H]3COc4ccc(F)cc4C3)cn(CCO)c2c1 (single isomer, unassigned) [Compound 2-22]
IC50 [1]: 51 to 500 nM
IC50 [2]: > 501 nM

COc1n[nH]cc1-c1cc2c(cn1)c(C(=O)C1COc3ccc(Cl)cc3C1)cn2CCO (centres unmarked) [Compound 1-1]
IC50 [1]: > 501 nM
IC50 [2]: > 501 nM

O=C(c1cn(CCO)c2nc(-c3c[nH]nc3Cl)ccc12)C1COc2ccc(F)cc2C1 (centres unmarked) [Compound 1-3]
IC50 [1]: < 10 nM
IC50 [2]: 11 to 50 nM

O=C(c1cn(CCO)c2nc(-c3c[nH]nc3Cl)ccc12)C1COc2ccc(Cl)cc2C1 (centres unmarked) [Compound 1-4]
IC50 [1]: < 10 nM
IC50 [2]: 11 to 50 nM

O=C(c1cn(CCO)c2cc(-c3c[nH]nc3Cl)cnc12)C1COc2ccc(Cl)cc2C1 (centres unmarked) [Compound 1-5]
IC50 [1]: 11 to 50 nM
IC50 [2]: 51 to 500 nM

CC(O)Cn1cc(C(=O)C2COc3ccc(Cl)cc3C2)c2cnc(-c3c[nH]nc3Cl)cc21 (centres unmarked) [Compound 1-6]
IC50 [1]: < 10 nM
IC50 [2]: 11 to 50 nM

C[C@H](O)Cn1cc(C(=O)C2COc3ccc(Cl)cc3C2)c2cnc(-c3cn[nH]c3Cl)cc21 (some centres unmarked) [Compound 1-7]
IC50 [1]: < 10 nM
IC50 [2]: 11 to 50 nM

C[C@@H](O)Cn1cc(C(=O)C2COc3ccc(Cl)cc3C2)c2cnc(-c3c[nH]nc3Cl)cc21 (some centres unmarked) [Compound 1-8]
IC50 [1]: < 10 nM
IC50 [2]: 11 to 50 nM

C[C@H](O)Cn1cc(C(=O)[C@@H]2COc3ccc(Cl)cc3C2)c2cnc(-c3cn[nH]c3Cl)cc21 [Compound 1-9]
IC50 [1]: < 10 nM
IC50 [2]: 11 to 50 nM

C[C@@H](O)Cn1cc(C(=O)[C@@H]2COc3ccc(Cl)cc3C2)c2cnc(-c3cn[nH]c3Cl)cc21 [Compound 1-10]
IC50 [1]: < 10 nM
IC50 [2]: 11 to 50 nM

C[C@H](O)Cn1cc(C(=O)[C@@H]2COc3ccc(Cl)cc3C2)c2cnc(-c3cn[nH]c3Cl)cc21 [Compound 1-11]
IC50 [1]: 11 to 50 nM
IC50 [2]: 11 to 50 nM

C[C@H](O)Cn1cc(C(=O)[C@@H]2COc3ccc(Cl)cc3C2)c2cnc(-c3cn[nH]c3Cl)cc21 [Compound 1-12]
IC50 [1]: < 10 nM
IC50 [2]: 11 to 50 nM

O=C(c1cn(CCO)c2cc(-c3c[nH]nc3Cl)ncc12)C1COc2ccc(F)cc2C1 (centres unmarked) [Compound 1-13]
IC50 [1]: < 10 nM
IC50 [2]: 11 to 50 nM

CC(O)Cn1cc(C(=O)C2COc3ccc(F)cc3C2)c2cnc(-c3c[nH]nc3Cl)cc21 (centres unmarked) [Compound 1-14]
IC50 [1]: < 10 nM
IC50 [2]: < 10 nM

Cc1n[nH]cc1-c1ccc2c(C(=O)C3COc4ccc(F)cc4C3)cn(CCO)c2n1 (centres unmarked) [Compound 1-15]
IC50 [1]: < 10 nM
IC50 [2]: < 10 nM

CC(C)(O)Cn1cc(C(=O)C2COc3ccc(Cl)cc3C2)c2cnc(-c3c[nH]nc3Cl)cc21 (centres unmarked) [Compound 1-16]
IC50 [1]: < 10 nM
IC50 [2]: 11 to 50 nM

CC(C)(O)Cn1cc(C(=O)[C@@H]2COc3ccc(Cl)cc3C2)c2cnc(-c3c[nH]nc3Cl)cc21 [Compound 1-17]
IC50 [1]: < 10 nM
IC50 [2]: < 10 nM

CC(C)(O)Cn1cc(C(=O)[C@H]2COc3ccc(Cl)cc3C2)c2cnc(-c3c[nH]nc3Cl)cc21 [Compound 1-18]
IC50 [1]: 51 to 500 nM
IC50 [2]: > 501 nM

CC(C)(O)Cn1cc(C(=O)[C@@H]2COc3ccc(Cl)cc3C2)c2cnc(-c3c[nH]nc3Cl)cc21 [Compound 1-19]
IC50 [1]: < 10 nM
IC50 [2]: < 10 nM

C[C@H](O)Cn1cc(C(=O)C2COc3ccc(F)cc3C2)c2cnc(-c3c[nH]nc3Cl)cc21 (some centres unmarked) [Compound 1-20]
IC50 [1]: < 10 nM
IC50 [2]: < 10 nM

C[C@@H](O)Cn1cc(C(=O)C2COc3ccc(F)cc3C2)c2cnc(-c3c[nH]nc3Cl)cc21 (some centres unmarked) [Compound 1-21]
IC50 [1]: < 10 nM
IC50 [2]: < 10 nM

COc1ccc2c(c1)CC(C(=O)c1cn(CCO)c3nc(-c4c[nH]nc4Cl)ccc13)CO2 (centres unmarked) [Compound 1-22]
IC50 [1]: < 10 nM
IC50 [2]: < 10 nM

COc1ccc2c(c1)CC(C(=O)c1cn(CCO)c3cc(-c4c[nH]nc4Cl)ncc13)CO2 (centres unmarked) [Compound 1-23]
IC50 [1]: < 10 nM
IC50 [2]: < 10 nM

COc1ccc2c(c1)CC(C(=O)c1cn(CCO)c3cc(-c4cn[nH]c4F)ncc13)CO2 (centres unmarked) [Compound 1-24]
IC50 [1]: < 10 nM
IC50 [2]: < 10 nM

COc1ccc2c(c1)CC(C(=O)c1cn(C[C@H](C)O)c3cc(-c4cn[nH]c4F)ncc13)CO2 (some centres unmarked) [Compound 1-25]
IC50 [1]: < 10 nM
IC50 [2]: 11 to 50 nM

COc1ccc2c(c1)C[C@H](C(=O)c1cn(C[C@H](C)O)c3cc(-c4cn[nH]c4F)ncc13)CO2 [Compound 1-26]
IC50 [1]: < 10 nM
IC50 [2]: < 10 nM

COc1ccc2c(c1)CC(C(=O)c1cn(C[C@H](C)O)c3cc(-c4cn[nH]c4Cl)ncc13)CO2 (some centres unmarked) [Compound 1-27]
IC50 [1]: < 10 nM
IC50 [2]: < 10 nM

COc1ccc2c(c1)CC(C(=O)c1cn(CC(C)(C)O)c3cc(-c4cn[nH]c4F)ncc13)CO2 (centres unmarked) [Compound 1-28]
IC50 [1]: < 10 nM
IC50 [2]: < 10 nM

COc1ccc2c(c1)CC(C(=O)c1cn(CC(C)(C)O)c3cc(-c4cn[nH]c4Cl)ncc13)CO2 (centres unmarked) [Compound 1-29]
IC50 [1]: < 10 nM
IC50 [2]: < 10 nM

C[C@H](O)Cn1cc(C(=O)[C@@H]2COc3ccc(Cl)cc3C2)c2cnc(-c3cn[nH]c3F)cc21 [Compound 1-30]
IC50 [1]: < 10 nM
IC50 [2]: 11 to 50 nM

CC(C)(O)Cn1cc(C(=O)[C@@H]2COc3ccc(Cl)cc3C2)c2cnc(-c3cn[nH]c3F)cc21 [Compound 1-31]
IC50 [1]: < 10 nM
IC50 [2]: < 10 nM

CC(C)(O)Cn1cc(C(=O)[C@@H]2COc3ccc(Cl)cc3C2)c2cnc(-c3c[nH]nc3Cl)cc21 [Compound 1-32]
IC50 [1]: < 10 nM
IC50 [2]: 11 to 50 nM

COc1[nH]ncc1-c1cc2c(cn1)c(C(=O)[C@@H]1COc3ccc(Cl)cc3C1)cn2C[C@H](C)O [Compound 1-33]
IC50 [1]: < 10 nM
IC50 [2]: 11 to 50 nM

COc1[nH]ncc1-c1cc2c(cn1)c(C(=O)[C@H]1COc3ccc(Cl)cc3C1)cn2C[C@H](C)O [Compound 1-34]
IC50 [1]: 11 to 50 nM
IC50 [2]: 51 to 500 nM

CC[C@H](O)Cn1cc(C(=O)C2COc3ccc(Cl)cc3C2)c2cnc(-c3cn[nH]c3Cl)cc21 (some centres unmarked) [Compound 1-35]
IC50 [1]: 11 to 50 nM
IC50 [2]: 51 to 500 nM

CC[C@H](O)Cn1cc(C(=O)C2COc3ccc(Cl)cc3C2)c2cnc(-c3cn[nH]c3F)cc21 (some centres unmarked) [Compound 1-36]
IC50 [1]: 11 to 50 nM
IC50 [2]: 51 to 500 nM

O=C(c1cn(CC2CC(O)C2)c2cc(-c3cn[nH]c3F)ncc12)C1COc2ccc(Cl)cc2C1 (centres unmarked) [Compound 1-37]
IC50 [1]: 11 to 50 nM
IC50 [2]: 51 to 500 nM

O=C(c1cn(CC2CC(O)C2)c2cc(-c3cn[nH]c3Cl)ncc12)C1COc2ccc(Cl)cc2C1 (centres unmarked) [Compound 1-38]
IC50 [1]: < 10 nM
IC50 [2]: 11 to 50 nM

CC(O)Cn1cc(C(=O)C2COc3ccc(Cl)cc3C2)c2ccc(-c3c[nH]nc3Cl)cc21 (centres unmarked) [Compound 1-39]
IC50 [1]: 11 to 50 nM
IC50 [2]: 11 to 50 nM

CC(O)Cn1cc(C(=O)[C@@H]2COc3ccc(Cl)cc3C2)c2ccc(-c3c[nH]nc3Cl)cc21 (some centres unmarked) [Compound 1-40]
IC50 [1]: < 10 nM
IC50 [2]: 11 to 50 nM

CC(O)Cn1cc(C(=O)[C@@H]2COc3ccc(Cl)cc3C2)c2ccc(-c3c[nH]nc3F)cc21 (some centres unmarked) [Compound 1-41]
IC50 [1]: < 10 nM
IC50 [2]: 11 to 50 nM

COc1n[nH]cc1-c1ccc2c(C(=O)[C@@H]3COc4ccc(Cl)cc4C3)cn(CC(C)O)c2c1 (some centres unmarked) [Compound 1-42]
IC50 [1]: < 10 nM
IC50 [2]: 11 to 50 nM

COc1n[nH]cc1-c1ccc2c(C(=O)C3COc4ccc(Cl)cc4C3)cn(C[C@H](C)O)c2c1 (some centres unmarked) [Compound 1-43]
IC50 [1]: 11 to 50 nM
IC50 [2]: 51 to 500 nM

COc1n[nH]cc1-c1ccc2c(C(=O)C3COc4ccc(Cl)cc4C3)cn(C[C@@H](C)O)c2c1 (some centres unmarked) [Compound 1-44]
IC50 [1]: 11 to 50 nM
IC50 [2]: 11 to 50 nM

C[C@H](O)Cn1cc(C(=O)C2COc3ccc(Cl)cc3C2)c2cnc(-c3cn[nH]c3Cl)nc21 (some centres unmarked) [Compound 1-45]
IC50 [1]: < 10 nM
IC50 [2]: 11 to 50 nM

C[C@H](O)Cn1cc(C(=O)[C@@H]2COc3ccc(Cl)cc3C2)c2cnc(-c3cn[nH]c3Cl)nc21 [Compound 1-46]
IC50 [1]: < 10 nM
IC50 [2]: < 10 nM

C[C@@H](O)Cn1cc(C(=O)C2COc3ccc(Cl)cc3C2)c2cnc(-c3cn[nH]c3F)nc21 (some centres unmarked) [Compound 1-47]
IC50 [1]: < 10 nM
IC50 [2]: 11 to 50 nM
